Test results published in ChEMBL document CHEMBL1201862, “PubChem BioAssay data set” (2004).
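Tested at 5 concentrations; 48 h exposure; 96-well plates; endpoints linearly interpolated, else capped at highest concentration. At the GI50, growth is halved.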 Activity calls are given as the source filed them. Rule as the data show it: active = GI50 up to about 1.1 µM and inactive = higher. Where a SMILES comes first, the peptide text is derived from it. [ ]: non-standard residue; d: D form. The star is where a group is joined. Phe(2-OMe) = COc1ccccc1C[CH](N)C(=O)O; Cbz = O=C(OCc1ccccc1)*; OBn = c1ccc(CO*)cc1

Experiments:
Experiment in all cases: growth of human tumour cells (NCI), 48 h
[1] = system: HT-29
[2] = system: MCF7
[3] = system: IGROV-1
[4] = system: OVCAR-8
[5] = system: K562
[6] = system: A498
[7] = system: ACHN
[8] = system: OVCAR-5
[9] = system: SK-MEL-5
[10] = system: NCI-H226
[11] = system: 786-0
[12] = system: SW-620
[13] = system: HOP-92
[14] = system: Hs-578T
[15] = system: SK-OV-3
[16] = system: OVCAR-3
[17] = system: NCI/ADR-RES
[18] = system: OVCAR-4
[19] = system: SF-268
[20] = system: NCI-H522

Row | SMILES | GI50 [1] | GI50 [2] | GI50 [3] | GI50 [4] | GI50 [5] | GI50 [6] | GI50 [7] | GI50 [8] | GI50 [9] | GI50 [10] | GI50 [11] | GI50 [12] | GI50 [13] | GI50 [14] | GI50 [15] | GI50 [16] | GI50 [17] | GI50 [18] | GI50 [19] | GI50 [20]
1 | COC(=O)C(Cc1ccccc1OC)NC(=O)C(CC(=O)OCc1ccccc1)NC(=O)OCc1ccccc1 (stereo not drawn) (Cbz-Asp(OBn)-[Phe(2-OMe)]-OMe; configuration not given here) | 65.3 µM (inactive) | 54 µM (inactive) | > 100 µM (inactive) | > 100 µM (inactive) | 61.5 µM (inactive) | 88.1 µM (inactive) | > 100 µM (inactive) | > 100 µM (inactive) | > 100 µM (inactive) | > 100 µM (inactive) | > 100 µM (inactive) | > 100 µM (inactive) | > 100 µM (inactive) | > 100 µM (inactive) |  |  |  |  |  | 
2 | O=c1[nH]nc(Cc2ccccc2)n1/N=C/c1cccs1 | > 100 µM (inactive) | > 100 µM (inactive) |  | > 100 µM (inactive) | > 100 µM (inactive) | 16 µM (inactive) | > 100 µM (inactive) | > 100 µM (inactive) |  | > 100 µM (inactive) | > 100 µM (inactive) | > 100 µM (inactive) |  | > 100 µM (inactive) | > 100 µM (inactive) | > 100 µM (inactive) | > 100 µM (inactive) | > 100 µM (inactive) | > 100 µM (inactive) | 
3 | CCC1(CC)C(=O)NN(C(=O)c2ccccc2)C1=O | > 100 µM (inactive) | > 100 µM (inactive) | > 100 µM (inactive) | > 100 µM (inactive) | > 100 µM (inactive) |  | > 100 µM (inactive) | > 100 µM (inactive) | > 100 µM (inactive) | > 100 µM (inactive) | > 100 µM (inactive) | > 100 µM (inactive) |  | > 100 µM (inactive) | > 100 µM (inactive) | > 100 µM (inactive) | > 100 µM (inactive) | > 100 µM (inactive) | > 100 µM (inactive) | > 100 µM (inactive)
4 | O=C(Cn1c2ccc(Br)cc2c2nc3ccccc3nc21)NC1CCCCC1 | > 100 µM (inactive) |  | > 100 µM (inactive) | > 100 µM (inactive) | > 100 µM (inactive) | > 100 µM (inactive) | > 100 µM (inactive) | > 100 µM (inactive) | > 100 µM (inactive) | > 100 µM (inactive) | > 100 µM (inactive) | > 100 µM (inactive) | 51.1 µM (inactive) | 43.3 µM (inactive) | > 100 µM (inactive) | > 100 µM (inactive) | > 100 µM (inactive) | > 100 µM (inactive) | > 100 µM (inactive) | > 100 µM (inactive)
5 | CC1=C(C(=O)OC(C)(C)C)C(c2ccc([N+](=O)[O-])cc2)C(C(=O)OC(C)(C)C)=C(C)N1 | 19.8 µM (inactive) | 16.6 µM (inactive) | 16.8 µM (inactive) | 20.4 µM (inactive) | 25.4 µM (inactive) | 22.8 µM (inactive) | 21.4 µM (inactive) | 19.1 µM (inactive) | 18.2 µM (inactive) | 21.3 µM (inactive) | 22.1 µM (inactive) | 26.9 µM (inactive) | 15.4 µM (inactive) | 20.2 µM (inactive) | 32.4 µM (inactive) | 20.1 µM (inactive) |  | 20.7 µM (inactive) | 21.7 µM (inactive) | 18.5 µM (inactive)
6 | O=C(NCCNCCNC(=O)C(F)(F)F)C(F)(F)F | > 100 µM (inactive) | > 100 µM (inactive) | > 100 µM (inactive) | > 100 µM (inactive) | > 100 µM (inactive) |  | > 100 µM (inactive) | > 100 µM (inactive) | > 100 µM (inactive) | > 100 µM (inactive) | > 100 µM (inactive) | > 100 µM (inactive) |  | > 100 µM (inactive) | > 100 µM (inactive) | > 100 µM (inactive) | > 100 µM (inactive) | > 100 µM (inactive) | > 100 µM (inactive) | 
7 | CCN(CC)CCCn1c(=O)c2ccccc2n2c3c(=O)n(C)c(=O)n(C)c3nc12 | 6.56 µM (inactive) | 4.76 µM (inactive) | 6.58 µM (inactive) | 5.08 µM (inactive) | 6.79 µM (inactive) |  | 1.34 µM (inactive) | 12.1 µM (inactive) | 2.22 µM (inactive) | 2.7 µM (inactive) | 2.21 µM (inactive) | 3.42 µM (inactive) | 3.9 µM (inactive) | 14 µM (inactive) | 3.37 µM (inactive) | 14.4 µM (inactive) | 13.2 µM (inactive) | 6.95 µM (inactive) | 5.9 µM (inactive) | 5.74 µM (inactive)
8 | C=CCN(CC=C)Cn1c(=S)sc2ccccc21 |  | > 100 µM (inactive) | 36.6 µM (inactive) | > 100 µM (inactive) |  |  | > 100 µM (inactive) | > 100 µM (inactive) | 28.8 µM (inactive) |  | > 100 µM (inactive) | 48.8 µM (inactive) | 36.4 µM (inactive) | > 100 µM (inactive) | 91.4 µM (inactive) | > 100 µM (inactive) | > 100 µM (inactive) | 86.3 µM (inactive) | > 100 µM (inactive) | 18.7 µM (inactive)
9 | COc1cc2c(/C=C3/C(=O)Nc4ccc(O)cc43)c(Cl)n(Cc3ccccc3)c2cc1C | 0.75 µM (active) | 1.18 µM (inactive) | 0.682 µM (active) | 1.43 µM (inactive) | 0.583 µM (active) |  | 0.628 µM (active) | 2.1 µM (inactive) | 0.266 µM (active) | 0.948 µM (active) | 0.222 µM (active) | 0.433 µM (active) | 12.8 µM (inactive) | 0.354 µM (active) | 0.817 µM (active) | 0.234 µM (active) | 0.574 µM (active) | 4.2 µM (inactive) | 0.678 µM (active) | 1.22 µM (inactive)
10 | Cc1cc2c(c(C(=O)NCC(=O)O)c1)Oc1c(cc(C)cc1C(=O)NCC(=O)O)S2 | > 100 µM (inactive) | > 100 µM (inactive) | > 100 µM (inactive) | > 100 µM (inactive) | > 100 µM (inactive) |  | > 100 µM (inactive) | > 100 µM (inactive) |  | > 100 µM (inactive) | > 100 µM (inactive) | > 100 µM (inactive) | > 100 µM (inactive) | > 100 µM (inactive) | > 100 µM (inactive) | > 100 µM (inactive) | > 100 µM (inactive) | > 100 µM (inactive) | > 100 µM (inactive) | > 100 µM (inactive)
11 | C[C@]12CCC(=O)C=C1CC[C@@H]1C2CC[C@]2(C)c3nn(-c4ccc(F)cc4)nc3CC12 (stereo partly drawn) | > 100 µM (inactive) | > 100 µM (inactive) | > 100 µM (inactive) | > 100 µM (inactive) | > 100 µM (inactive) | 49.8 µM (inactive) | > 100 µM (inactive) | > 100 µM (inactive) | > 100 µM (inactive) | > 100 µM (inactive) | 50.4 µM (inactive) | > 100 µM (inactive) | 61.1 µM (inactive) | 64.6 µM (inactive) | > 100 µM (inactive) | > 100 µM (inactive) |  | 49.3 µM (inactive) | > 100 µM (inactive) | > 100 µM (inactive)
12 | CC(CO)(CO)N1C(=O)C2C3c4ccccc4C(c4ccccc43)C2C1=O (stereo not drawn) | > 100 µM (inactive) | > 100 µM (inactive) | > 100 µM (inactive) | > 100 µM (inactive) | > 100 µM (inactive) | 64 µM (inactive) | > 100 µM (inactive) | > 100 µM (inactive) | > 100 µM (inactive) | > 100 µM (inactive) | > 100 µM (inactive) | > 100 µM (inactive) |  | > 100 µM (inactive) | > 100 µM (inactive) | > 100 µM (inactive) | > 100 µM (inactive) |  | > 100 µM (inactive) | > 100 µM (inactive)
13 | O=C1Cc2c([nH]c3ccc(C(=O)O)cc23)-c2ccccc2N1 | 84.9 µM (inactive) | > 100 µM (inactive) | > 100 µM (inactive) | > 100 µM (inactive) | > 100 µM (inactive) | > 100 µM (inactive) | > 100 µM (inactive) | 6.79 µM (inactive) |  | > 100 µM (inactive) | > 100 µM (inactive) | > 100 µM (inactive) | > 100 µM (inactive) | > 100 µM (inactive) | > 100 µM (inactive) | > 100 µM (inactive) | > 100 µM (inactive) | > 100 µM (inactive) | > 100 µM (inactive) | 
14 | COc1ccc(/C=C2\N=C(SC)N(C)C2=O)cc1 | 46.1 µM (inactive) | 49.4 µM (inactive) | 48 µM (inactive) | > 100 µM (inactive) | 50.9 µM (inactive) | 37.8 µM (inactive) | 38.8 µM (inactive) | 95.7 µM (inactive) | 42.3 µM (inactive) | 47.3 µM (inactive) | 68.7 µM (inactive) | 80.2 µM (inactive) | > 100 µM (inactive) | 22.8 µM (inactive) | 97.9 µM (inactive) | 46.1 µM (inactive) | 86.9 µM (inactive) | 39.6 µM (inactive) | 28.1 µM (inactive) | 
15 | O=c1[nH]c2cc3cccnc3c(Cl)c2nc1CBr | 19.5 µM (inactive) | 10.1 µM (inactive) | 2.92 µM (inactive) | 17.9 µM (inactive) | 12.1 µM (inactive) |  | 7.4 µM (inactive) | 20.3 µM (inactive) | 17.5 µM (inactive) | 19.1 µM (inactive) | 6.49 µM (inactive) | 11.4 µM (inactive) | 14.1 µM (inactive) | 13.1 µM (inactive) | 26 µM (inactive) | 14.8 µM (inactive) | 20 µM (inactive) | 19.3 µM (inactive) | 22.2 µM (inactive) | 11 µM (inactive)
